Results as given in patent US20260159512A1, “BCAT2 INHIBITORS” (AGIOS PHARMACEUTICALS, INC., priority 2021, published 2026).

Experiments:
Conditions in all cases: average where tested multiple times
hBCAT1 = target: T1, hBCAT1 (Homo sapiens, UniProt P54687); assay: BCAT1 in vitro enzyme inhibition assay (resazurin/diaphorase-coupled fluorescence); assay type: biochemical
T1 sequence (P54687 1-386): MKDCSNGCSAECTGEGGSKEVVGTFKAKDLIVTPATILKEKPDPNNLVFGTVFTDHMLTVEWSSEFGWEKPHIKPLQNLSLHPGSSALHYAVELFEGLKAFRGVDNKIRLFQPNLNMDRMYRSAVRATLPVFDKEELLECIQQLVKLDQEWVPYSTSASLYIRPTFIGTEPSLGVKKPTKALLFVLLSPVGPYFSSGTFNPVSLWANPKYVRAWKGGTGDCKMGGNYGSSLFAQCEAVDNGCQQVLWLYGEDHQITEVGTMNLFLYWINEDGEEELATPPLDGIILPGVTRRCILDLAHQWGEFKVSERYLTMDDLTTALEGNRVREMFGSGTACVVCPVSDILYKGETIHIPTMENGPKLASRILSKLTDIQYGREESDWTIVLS
Summary of the method: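 Human BCAT1 activity read by resazurin/diaphorase-coupled fluorescence. Compounds added from 50× DMSO stocks at 1:50, giving 10-point 3-fold titrations from 100 μM top final concentration. Run in technical duplicate; repeat tests averaged.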

BCAT2 [1] = target: T2, BCAT2 (Homo sapiens, UniProt O15382); assay: BCAT2 in vitro cell inhibition using engineered A549 cells (KMV cell assay, 13C6-KMV by LC-MS/MS); assay type: cell-based; set-up: The result was an engineered A549 cell line that expressed endogenous BCAT2; endogenous in cells; host or cells: A549 cells with MUT and BCAT1 knocked out by CRISPR/CAS9; key to BCAT2 Cell Inhibition: A: less than or equal to 0.100 μM; B: greater than 0.100 and less than or equal to 0.500 μM; C: greater than 0.500 and less than or equal to 1.000 μM; d: greater than 1.000 μM; E: no fit
T2 sequence (O15382 28-392): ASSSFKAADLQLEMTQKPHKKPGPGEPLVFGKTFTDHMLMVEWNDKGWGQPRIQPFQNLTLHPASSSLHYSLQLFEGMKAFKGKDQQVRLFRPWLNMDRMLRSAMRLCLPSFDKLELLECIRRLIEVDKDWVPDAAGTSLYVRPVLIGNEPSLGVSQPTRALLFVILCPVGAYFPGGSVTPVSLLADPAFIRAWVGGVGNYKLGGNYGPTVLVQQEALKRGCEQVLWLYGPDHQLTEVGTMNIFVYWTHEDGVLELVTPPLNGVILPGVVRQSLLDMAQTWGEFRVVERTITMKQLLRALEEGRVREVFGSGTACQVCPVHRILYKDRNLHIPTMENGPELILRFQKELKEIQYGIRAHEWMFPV

BCAT2 [2] = target: T2, BCAT2; assay: BCAT2 in vitro enzyme inhibition assay (resazurin/diaphorase-coupled fluorescence); assay type: biochemical
Summary of the method: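 Coupled fluorescence readout: glutamate formed from L-leucine/α-ketoglutarate transamination drives GDH/NAD/diaphorase reduction of resazurin (Ex 540/Em 590). Human BCAT2 was first exposed 1 h at room temperature to compound, top final 100 μM in 3-fold, 10-point series; substrate reaction ran 1 h before SDS quench, in technical duplicate with DMSO max and enzyme-free min controls.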

Row | Structure (SMILES) | IC50 (hBCAT1) | IC50 (BCAT2 [1]) | IC50 (BCAT2 [2]) | BCAT2 Cell Inhibition (BCAT2 [1])
1 | CC(C)Cc1nc2cnc(-c3nc[nH]n3)cc2n1[C@@H]1C[C@@H](O)C[C@H](NC(=O)c2ncc(Cl)s2)C1 [Example 256, 5-chloro-N-((1R,3S,5S)-3-hydroxy-5-(2-isobutyl-6-(1H-1,2,4-triazol-3-yl)-1H-imidazo[4,5-c]pyridin-1-yl)cyclohexyl)thiazole-2-carboxamide] | < 500 nM | ≤ 100 nM | ≤ 100 nM | 
2 | O=C(N[C@H]1CCC[C@@H](n2c(-c3ccccc3F)nc3cc(-n4nccn4)ncc32)C1)c1ncc(C(F)F)s1 [Example 148, 5-(difluoromethyl)-N-((1S,3R)-3-(2-(2-fluorophenyl)-6-(2H-1,2,3-triazol-2-yl)-3H-imidazo[4,5-c]pyridin-3-yl)cyclohexyl)thiazole-2-carboxamide] | > 5000 nM | > 1000 nM | ≤ 100 nM | 
3 | O=C(N[C@H]1CCC[C@@H](n2c(-c3ncccc3F)nc3cnc(-n4ccnn4)nc32)C1)c1ncc(C(F)F)s1 [Example 59, 5-(difluoromethyl)-N-((1S,3R)-3-(8-(3-fluoropyridin-2-yl)-2-(1H-1,2,3-triazol-1-yl)-9H-purin-9-yl)cyclohexyl)thiazole-2-carboxamide] | > 5000 nM | > 1000 nM | 100 to 500 nM | 
4 | CC(O)CN1CC(NC(=O)c2ncc(C(F)F)s2)CC(n2c(-c3ncccc3F)nc3cnc(-n4nccn4)cc32)C1 (stereo not drawn) [Example 129, 5-(difluoromethyl)-N-(5-(2-(3-fluoropyridin-2-yl)-6-(2H-1,2,3-triazol-2-yl)-1H-imidazo[4,5-c]pyridin-1-yl)-1-(2-hydroxypropyl)piperidin-3-yl)thiazole-2-carboxamide] | > 5000 nM | > 1000 nM | ≤ 100 nM | 
5 | O=C(N[C@H]1CCC[C@@H](n2c(Oc3ccccc3)nc3cnc(-n4nccn4)cc32)C1)c1ccc(Br)s1 [Example 63, 5-bromo-N-((1S,3R)-3-(2-phenoxy-6-(2H-1,2,3-triazol-2-yl)-1H-imidazo[4,5-c]pyridin-1-yl)cyclohexyl)thiophene-2-carboxamide] | > 5000 nM | 100 to 500 nM | ≤ 100 nM | 
6 | O=C(N[C@H]1CCC[C@@H](n2c(-c3ccccc3F)nc3cnc(-c4nn[nH]n4)cc32)C1)c1ccc(Cl)s1 [Example 82, 5-chloro-N-((1S,3R)-3-(2-(2-fluorophenyl)-6-(2H-tetrazol-5-yl)-1H-imidazo[4,5-c]pyridin-1-yl)cyclohexyl)thiophene-2-carboxamide] | < 500 nM | 500 to 1000 nM | ≤ 100 nM | 
7 | O=C(N[C@H]1CCC[C@@H](n2c(-c3ccccc3F)nc3cnc(-c4nc[nH]n4)cc32)[C@@H]1O)c1ccc(Cl)s1 [Example 399, 5-chloro-N-((1S,2R,3R)-3-(2-(2-fluorophenyl)-6-(1H-1,2,4-triazol-3-yl)-1H-imidazo[4,5-c]pyridin-1-yl)-2-hydroxycyclohexyl)thiophene-2-carboxamide] | < 500 nM | ≤ 100 nM | ≤ 100 nM | 
8 | O=C(N[C@H]1CCC[C@@H](n2c(-c3ccccc3F)nc3cnc(-c4cnn[nH]4)cc32)C1)c1ncc(Cl)s1 [Example 189, 5-chloro-N-((1S,3R)-3-(2-(2-fluorophenyl)-6-(1H-1,2,3-triazol-5-yl)-1H-imidazo[4,5-c]pyridin-1-yl)cyclohexyl)thiazole-2-carboxamide] | < 500 nM | ≤ 100 nM | ≤ 100 nM | 
9 | CN1C[C@H](NC(=O)c2ncc(Cl)s2)C[C@H](n2c(-c3ccccc3F)nc3cnc(-c4nc[nH]n4)cc32)C1 (single isomer, unassigned) [Example 134] | < 500 nM | ≤ 100 nM | ≤ 100 nM | 
10 | CC(C)Cc1nc2cnc(-c3ccccn3)cc2n1[C@@H]1CCC[C@H](NC(=O)c2ncc(Cl)s2)[C@H]1O [Example 235, 5-chloro-N-((1S,2R,3R)-2-hydroxy-3-(2-isobutyl-6-(pyridin-2-yl)-1H-imidazo[4,5-c]pyridin-1-yl)cyclohexyl)thiazole-2-carboxamide] | < 500 nM | ≤ 100 nM | ≤ 100 nM | 
11 | CC(C)Cc1nc2cnc(-c3ncon3)cc2n1[C@@H]1CCC[C@H](NC(=O)c2ncc(Cl)s2)C1 [Example 321, 5-chloro-N-((1S,3R)-3-(2-isobutyl-6-(1,2,4-oxadiazol-3-yl)-1H-imidazo[4,5-c]pyridin-1-yl)cyclohexyl)thiazole-2-carboxamide] | 500 to 1000 nM | 500 to 1000 nM | ≤ 100 nM | 
12 | O=C(N[C@H]1CCC[C@@H](n2c(COC(F)(F)F)nc3cnc(-c4nc[nH]n4)cc32)C1)c1ncc(Cl)s1 [Example 313, N-((1S,3R)-3-(6-(1H-1,2,4-triazol-3-yl)-2-((trifluoromethoxy)methyl)-1H-imidazo[4,5-c]pyridin-1-yl)cyclohexyl)-5-chlorothiazole-2-carboxamide] | < 500 nM | ≤ 100 nM | ≤ 100 nM | 
13 | CC(C)Cc1nc2cnc(-c3ncccn3)cc2n1[C@@H]1C[C@@H](O)C[C@H](NC(=O)c2ncc(Cl)s2)C1 (stereo in doubt) [Example 397, 5-chloro-N-((1R,3S,5S)-3-hydroxy-5-(2-isobutyl-6-(pyrimidin-2-yl)-1H-imidazo[4,5-c]pyridin-1-yl)cyclohexyl)thiazole-2-carboxamide] | 1000 to 5000 nM |  | > 1000 nM | E
14 | O=C(N[C@H]1CCC[C@@H](n2c(-c3ccccc3F)nc3cnc(-n4nccn4)cc32)C1)c1ncc(C(F)F)s1 [Example 25, 5-(difluoromethyl)-N-((1S,3R)-3-(2-(2-fluorophenyl)-6-(2H-1,2,3-triazol-2-yl)-1H-imidazo[4,5-c]pyridin-1-yl)cyclohexyl)thiazole-2-carboxamide] | < 500 nM | ≤ 100 nM | ≤ 100 nM | 
15 | O=C(N[C@H]1CCC[C@@H](n2c(-c3ncccc3F)nc3cnc(-c4nc[nH]n4)cc32)C1)c1ncc(C(F)F)s1 [Example 75, 5-(difluoromethyl)-N-((1S,3R)-3-(2-(3-fluoropyridin-2-yl)-6-(1H-1,2,4-triazol-3-yl)-1H-imidazo[4,5-c]pyridin-1-yl)cyclohexyl)thiazole-2-carboxamide] | < 500 nM | ≤ 100 nM | ≤ 100 nM | 
16 | O=C(N[C@H]1C[C@H](O)C[C@@H](n2c(-c3ccccc3F)nc3cnc(-c4ccccn4)cc32)C1)c1ncc(Cl)s1 (single isomer, unassigned) [Example 252] | < 500 nM | ≤ 100 nM | ≤ 100 nM | 
17 | CO[C@@H]1C[C@@H](NC(=O)c2ncc(Cl)s2)C[C@@H](n2c(CC(C)C)nc3cnc(-c4nc[nH]n4)cc32)C1 (stereo in doubt) [Example 414, 5-chloro-N-((1S,3R,5R)-3-(2-isobutyl-6-(1H-1,2,4-triazol-3-yl)-1H-imidazo[4,5-c]pyridin-1-yl)-5-methoxycyclohexyl)thiazole-2-carboxamide] | < 500 nM | ≤ 100 nM | ≤ 100 nM | 
18 | O=C(N[C@H]1CCC[C@@H](n2c(-c3ncccc3F)nc3cnc(-n4ccnn4)cc32)C1)c1ncc(C(F)F)s1 [Example 37, 5-(difluoromethyl)-N-((1S,3R)-3-(2-(3-fluoropyridin-2-yl)-6-(1H-1,2,3-triazol-1-yl)-1H-imidazo[4,5-c]pyridin-1-yl)cyclohexyl)thiazole-2-carboxamide] | 1000 to 5000 nM | > 1000 nM | 100 to 500 nM | 
19 | CN1C[C@@H](NC(=O)c2ncc(Cl)s2)C[C@@H](n2c(-c3ccccc3F)nc3cnc(-c4nc[nH]n4)cc32)C1 (single isomer, unassigned) [Example 133] | 1000 to 5000 nM | > 1000 nM | 100 to 500 nM | 
20 | O=C(N[C@H]1CCC[C@@H](n2c(-c3ccccn3)nc3cnc(-c4nc[nH]n4)cc32)C1)c1ncc(C(F)F)s1 [Example 53, 5-(difluoromethyl)-N-((1S,3R)-3-(2-(pyridin-2-yl)-6-(1H-1,2,4-triazol-3-yl)-1H-imidazo[4,5-c]pyridin-1-yl)cyclohexyl)thiazole-2-carboxamide] | < 500 nM | ≤ 100 nM | ≤ 100 nM | 
